From ChEMBL document CHEMBL5120971, “Network Pharmacology Research and Dual-omic Analyses Reveal the Molecular Mechanism of Natural Product Nodosin Inhibiting Muscle-Invasive Bladder Cancer in Vitro and in Vivo” (J Nat Prod, 2022)
Active and inactive are the calls of the source. The rule behind the calls is not given here.

Legend:
UMUC3 = experiment: Cytotoxicity against human UMUC3 cells assessed as reduction in cell growth by CCK8 assay; type: functional, cell-based
T-24 [1] = experiment: Induction of morphological changes in human T24 cells assessed as reduction in cell extension at 4 to 12 uM measured after 48 hrs by microscopy; type: functional, cell-based; details: dose 4-12 µM
T-24 [2] = experiment: Induction of morphological changes in human T24 cells assessed as reduction in cell adherence at 4 to 12 uM measured after 48 hrs by microscopy; type: functional, cell-based; details: dose 4-12 µM
T-24 [3] = experiment: Induction of morphological changes in human T24 cells assessed as cytoplasmic condensation at 4 to 12 uM measured after 48 hrs by microscopy; type: functional, cell-based; details: dose 4-12 µM
T-24 [4] = experiment: Inhibition of colony formation in human T24 cells at 1 to 12 uM measured after 12 days by crystal violet staining based microscopy; type: functional, cell-based; details: dose 1-12 µM, time 12.0 day
T-24 [5] = experiment: Cell cycle arrest in human T24 cells assessed as increase in cell accumulation at S-phase at 2 to 8 uM measured after 24 hrs by propidium iodide staining based flow cytometry; type: functional; details: dose 2-8 µM
T-24 [6] = experiment: Effect on E2F6 expression in human T24 cells at 6 uM measured after 24 to 30 hrs by proteomic analysis; type: functional, cell-based; details: time 24-30 hrs
T-24 [7] = experiment: Effect on NEK6 expression in human T24 cells at 6 uM measured after 24 to 30 hrs by proteomic analysis; type: functional, cell-based; details: time 24-30 hrs
T-24 [8] = experiment: Effect on NBN expression in human T24 cells at 6 uM measured after 24 to 30 hrs by proteomic analysis; type: functional, cell-based; details: time 24-30 hrs
T-24 [9] = experiment: Effect on RHOB expression in human T24 cells at 6 uM measured after 24 to 30 hrs by proteomic analysis; type: functional, cell-based; details: time 24-30 hrs
T-24 [10] = experiment: Effect on SUMO3 expression in human T24 cells at 6 uM measured after 24 to 30 hrs by proteomic analysis; type: functional, cell-based; details: time 24-30 hrs
T-24 [11] = experiment: Induction of ROS generation in human T24 cells at 4 to 10 uM measured after 6 hrs by H2DCFDA probe based flow cytometry; type: functional, cell-based; details: dose 4-10 µM
T-24 [12] = experiment: Induction of apoptosis in human T24 cells assessed as early apoptotic cells at 4 uM measured after 48 hrs by Annexin V-FITC/propidium iodide staining based flow cytometry (reference value: 1.2%); type: functional
T-24 [13] = experiment: Induction of apoptosis in human T24 cells assessed as necrotic cells at 4 uM measured after 48 hrs by Annexin V-FITC/propidium iodide staining based flow cytometry (reference value: 0.57%); type: functional
T-24 [14] = experiment: Induction of apoptosis in human T24 cells assessed as viable cells at 6 uM measured after 48 hrs by Annexin V-FITC/propidium iodide staining based flow cytometry (reference value: 97.49%); type: functional; details: read-out: Activity
T-24 [15] = experiment: Induction of apoptosis in human T24 cells assessed as early apoptotic cells at 6 uM measured after 48 hrs by Annexin V-FITC/propidium iodide staining based flow cytometry (reference value: 1.2%); type: functional
T-24 [16] = experiment: Induction of apoptosis in human T24 cells assessed as late apoptotic cells at 6 uM measured after 48 hrs by Annexin V-FITC/propidium iodide staining based flow cytometry (reference value: 0.74%); type: functional
T-24 [17] = experiment: Induction of apoptosis in human T24 cells assessed as necrotic cells at 6 uM measured after 48 hrs by Annexin V-FITC/propidium iodide staining based flow cytometry (reference value: 0.57%); type: functional
T-24 [18] = experiment: Induction of apoptosis in human T24 cells assessed as viable cells at 8 uM measured after 48 hrs by Annexin V-FITC/propidium iodide staining based flow cytometry (reference value: 97.49%); type: functional; details: read-out: Activity
T-24 [19] = experiment: Induction of apoptosis in human T24 cells assessed as late apoptotic cells at 8 uM measured after 48 hrs by Annexin V-FITC/propidium iodide staining based flow cytometry (reference value: 0.74%); type: functional
T-24 [20] = experiment: Up regulation of HMOX1 expression in human T24 cells at 6 uM measured after 24 to 30 hrs by proteomic analysis; type: functional, cell-based; details: time 24-30 hrs
T-24 [21] = experiment: Induction of apoptosis in human T24 cells assessed as effect on ZFP36L1 expression at 6 uM measured after 24 to 30 hrs by proteomic analysis; type: functional, cell-based; details: time 24-30 hrs
T-24 [22] = experiment: Induction of apoptosis in human T24 cells assessed as effect on RMDN3 expression at 6 uM measured after 24 to 30 hrs by proteomic analysis; type: functional, cell-based; details: time 24-30 hrs
T-24 [23] = experiment: Induction of apoptosis in human T24 cells assessed as effect on DHCR24 expression at 6 uM measured after 24 to 30 hrs by proteomic analysis; type: functional, cell-based; details: time 24-30 hrs
T-24 [24] = experiment: Induction of apoptosis in human T24 cells assessed as effect on ARL6IP1 expression at 6 uM measured after 24 to 30 hrs by proteomic analysis; type: functional, cell-based; details: time 24-30 hrs
T-24 [25] = experiment: Induction of apoptosis in human T24 cells assessed as effect on FAM168A expression at 6 uM measured after 24 to 30 hrs by proteomic analysis; type: functional, cell-based; details: time 24-30 hrs
T-24 [26] = experiment: Induction of autophagy in human T24 cells assessed as effect on FLCN gene expression at 6 uM measured after 12 to 18 hrs by transcriptome analysis; type: functional, cell-based; details: time 12-18 hrs
T-24 [27] = experiment: Induction of autophagy in human T24 cells assessed as effect on PRKAA2 gene expression at 6 uM measured after 12 to 18 hrs by transcriptome analysis; type: functional, cell-based; details: time 12-18 hrs
T-24 [28] = experiment: Induction of autophagy in human T24 cells assessed as up regulation of MAP1LC3B gene expression at 6 uM measured after 12 to 18 hrs by transcriptome analysis; type: functional, cell-based; details: time 12-18 hrs
T-24 [29] = experiment: Induction of apoptosis in human T24 cells assessed as up regulation of SQSTM1 expression at 6 to 12 uM measured after 24 to 30 hrs by Western blot analysis; type: functional, cell-based; details: dose 6-12 µM, time 24-30 hrs
T-24 [30] = experiment: Induction of apoptosis in human T24 cells assessed as up regulation of LC3 expression at 6 to 12 uM measured after 24 hrs by immunofluorescence analysis; type: functional, cell-based; details: dose 6-12 µM
T-24 [31] = experiment: Induction of cell membrane disruption in human T24 cells at 4 to 8 uM measured after 48 hrs by transmission electron microscopy; type: cell-based; details: dose 4-8 µM
T-24 [32] = experiment: Induction of morphological changes in human T24 cells assessed as appearance of apoptotic bodies at 4 to 8 uM measured after 48 hrs by transmission electron microscopy; type: functional, cell-based; details: dose 4-8 µM
T-24 [33] = experiment: Up regulation of FTL expression in human T24 cells at 6 uM measured after 24 to 30 hrs by proteomic analysis; type: functional, cell-based; details: time 24-30 hrs
T-24 [34] = experiment: Up regulation of AIFM2 expression in human T24 cells at 6 uM measured after 24 to 30 hrs by proteomic analysis; type: functional, cell-based; details: time 24-30 hrs
T-24 [35] = experiment: Antimigratory activity against human T24 cells at 4 to 12 uM measured after 24 hrs by scratch test; type: functional, cell-based; details: dose 4-12 µM
T-24 [36] = experiment: Antitumor activity against human T24 cells xenografted in BALB/c mouse assessed as reduction in tumor growth at 2 mg/kg, ip administered at 2 days interval; type: functional, organism-based
T-24 [37] = experiment: Antitumor activity against human T24 cells xenografted in BALB/c mouse assessed as reduction in mitotic count at 2 mg/kg, ip administered at 2 days interval by H and E staining based assay; type: functional, organism-based
T-24 [38] = experiment: Antitumor activity against human T24 cells xenografted in BALB/c mouse assessed as increase in HMOX1expression at 2 mg/kg, ip administered at 2 days interval by immunohistochemical analysis; type: functional, organism-based

C=C1C(=O)[C@]23C[C@H]1C[C@@H](O)[C@H]2[C@@]12CO[C@@H](O)[C@@H]1C(C)(C)CC[C@@H]2OC3=O [NODOSIN]
IC50 (UMUC3): 3.45 µM | Activity (UMUC3; DDE = dose-dependent effect): Dde | Activity (T-24 [1]): Active | Activity (T-24 [2]): Active | Activity (T-24 [3]): Active | inhibition (T-24 [4]): Active | Activity (T-24 [5]): Active | Activity (T-24 [6]): Active | Activity (T-24 [7]): Active | Activity (T-24 [8]): Active | Activity (T-24 [9]): Active | Activity (T-24 [10]): Active | Activity (T-24 [11]): Active | Activity (T-24 [12]): 2.38% | Activity (T-24 [13]): 0.2% | viability at 6 µM (T-24 [14]): 78.8% | Activity (T-24 [15]): 10.74% | Activity (T-24 [16]): 10.04% | Activity (T-24 [17]): 0.4% | viability at 8 µM (T-24 [18]): 75.9% | Activity (T-24 [19]): 13.17% | Activity (T-24 [20]): Active | Activity (T-24 [21]): Active | Activity (T-24 [22]): Active | Activity (T-24 [23]): Active | Activity (T-24 [24]): Active | Activity (T-24 [25]): Active | Activity (T-24 [26]): Active | Activity (T-24 [27]): Active | Activity (T-24 [28]): Active | Activity (T-24 [29]): Active | Activity (T-24 [30]): Active | Activity (T-24 [31]): Active | Activity (T-24 [32]): Active | Activity (T-24 [33]): Active | Activity (T-24 [34]): Active | Activity (T-24 [35]): Active | Activity (T-24 [36]): Active | Activity (T-24 [37]): Active | Activity (T-24 [38]): Active
